Data reported in patent publication US9512128B2 (BAYER CROPSCIENCE AG, priority 2012, dated 2016).
Read-outs that look alike come from different tables or passages of the source.

How the values were obtained:
[1] = system: larvae of the mustard beetle (Phaedon cochleariae); assay: Phaedon cochleariae spray test (PHAECO); format: in vivo; details: application rate 500 g/ha, after 7 days, Chinese cabbage leaf discs
Experimental: 2. Phaedon cochleariae Spray Test (PHAECO)
(§1) • Solvents: 78.0 parts by weight of acetone • 1.5 part by weight of dimethylformamide • Emulsifier: 0.5 part by weight of alkylaryl polyglycol ether
(§2) To produce a suitable preparation of active compound, 1 part by weight of active compound is mixed with the stated amounts of solvents and emulsifier, and the concentrate is diluted with emulsifier-containing water to the desired concentration.
After 7 days, the efficacy in % is determined. 100% means that all of the beetle larvae have been killed; 0% means that none of the beetle larvae have been killed.

[2] = system: southern root-knot nematode (Meloidogyne incognita); assay: Meloidogyne incognita test (MELGIN); format: in vivo; details: application rate 20 ppm, after 14 days, lettuce
In short: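 Compound in acetone diluted with water, added to sand with M. incognita egg/larvae suspension and lettuce seeds. Root galls assessed after 14 days; effect in % where 100% means no galls and 0% equals untreated control.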

[3] = log P by HPLC on reversed-phase columns (C 18), EEC directive 79/831 Annex V.A8; format: physicochemical; details: for logP[a]: method [a]; for logP[b]: method [b]; for chromatographic logP: reversed-phase C18 HPLC column
In short: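 Measured by reversed-phase C18 HPLC (LC-MS) with a linear 10→95% acetonitrile gradient. Acidic: pH 2.7, 0.1% formic acid. Neutral: pH 7.8, 0.001 M ammonium bicarbonate.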

[4] = system: greenhouse red spider mite (Tetranychus urticae); assay: Tetranychus urticae spray test, OP-resistant (TETRUR); format: in vivo; details: application rate 500 g/ha, after 6 days, bean leaf discs
In short: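 Bean leaf discs infested with all stages of an OP-resistant strain are sprayed with compound in acetone/DMF with alkylaryl polyglycol ether emulsifier, diluted in water; % mortality after 6 days (100% = all mites killed).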

[5] = system: cattle ticks (Boophilus microplus); assay: Boophilus microplus injection test (BOOPMI Inj); format: in vivo; details: 20 μg/animal, injection into the abdomen, assessed after 7 days
Experimental: 6. Boophilus microplus Injection Test (BOOPMI Inj)
• Solvent: dimethyl sulphoxide
To produce a suitable preparation of active compound, 10 mg of active compound are mixed with 0.5 ml of solvent, and the concentrate is diluted with solvent to the desired concentration.
1 μl of the active compound solution is injected into the abdomen of 5 fed adult female cattle ticks (Boophilus microplus). The animals are transferred into dishes and kept in a climate-controlled room.
The activity is assessed after 7 days by laying of fertile eggs. Eggs whose fertility is not visible from the outside are stored in a climate-controlled cabinet until the larvae hatch after about 42 days. An efficacy of 100% means that none of the ticks has laid any fertile eggs; 0% means that all eggs are fertile.

[6] = system: green peach aphid (Myzus persicae); assay: Myzus persicae spray test (MYZUPE); format: in vivo; details: application rate 500 g/ha, after 6 days, Chinese cabbage leaf discs
Experimental: 1. Myzus persicae Spray Test (MYZUPE)
• Solvents: 78 parts by weight of acetone • 1.5 part by weight of dimethylformamide • Emulsifier: 0.5 part by weight of alkylaryl polyglycol ether
as §2
Discs of Chinese cabbage leaves (Brassica pekinensis) infested by all stages of the green peach aphid (Myzus persicae) are sprayed with an active compound preparation of the desired concentration.
After 6 days, the efficacy in % is determined. 100% here means that all of the aphids have been killed; 0% means that no aphids have been killed.

[7] = system: caterpillars of the armyworm (Spodoptera frugiperda); assay: Spodoptera frugiperda spray test (SPODFR); format: in vivo; details: application rate 500 g/ha, after 7 days, maize leaf discs
Experimental: 3. Spodoptera frugiperda Spray Test (SPODFR)
as §1, §2
Leaf discs of maize (Zea mays) are sprayed with an active compound preparation of the desired concentration and, after drying, populated with caterpillars of the armyworm (Spodoptera frugiperda).
After 7 days, the efficacy in % is determined. 100% means that all of the caterpillars have been killed; 0% means that none of the caterpillars have been killed.

[8] = pH 2.7, acidic range, pH 2.7, 0.1% aqueous formic acid / acetonitrile, read-out: log P[a]
[9] = pH 2.7, method [a], read-out: logP[a]
[10] = pH 7.8, method [b], read-out: logP[b]
[11] = pH 7.8, neutral range, pH 7.8, 0.001 molar aqueous ammonium bicarbonate / acetonitrile, read-out: log P[b]

SMILES | efficacy in % (beetle larvae killed) [1] [%] | nematicidal effect in % (formation of galls) [2] [%] | logP[a] [3] | logP[b] [3] | efficacy in % (spider mites killed) [4] [%] | efficacy in % (laying of fertile eggs) [5] [%] | efficacy in % (aphids killed) [6] [%] | efficacy in % (caterpillars killed) [7] [%] | chromatographic logP [3, 8] | chromatographic logP [3, 9] | chromatographic logP [3, 10] | chromatographic logP [3, 11]
Cc1cc(F)c(-n2cnc3scnc3c2=O)cc1[S+]([O-])CC(F)(F)F (stereo not shown) [Compound 61] | 100 | 90 | 1.57 | 1.56 | 90 | 100 |  |  |  |  |  | 
Cc1cc(F)c(-n2cnc3nn(C)c(C)c3c2=O)cc1[S+]([O-])CC(F)(F)F (stereo not shown) [Compound 172] |  |  |  |  | 90 | 100 | 90 |  |  |  |  | 
Cc1cc(F)c(-n2c(C)nc3nn(C)cc3c2=O)cc1[S+]([O-])CC(F)(F)F (stereo not shown) [Compound 175] |  |  |  |  | 100 |  | 100 |  |  |  |  | 
CCn1cnc2c(=O)n(-c3cc(SCC(F)(F)F)c(C)cc3F)cnc21 [Compound 53] |  | 100 | 2.46 | 2.41 | 90 |  | 90 |  |  |  |  | 
COc1ccc(-n2cnc3sccc3c2=O)cc1[S+]([O-])CC(F)(F)F (stereo not shown) [Compound 89] | 100 | 90 | 1.91 | 1.91 |  | 100 |  |  |  |  |  | 
Cc1cc(F)c(-n2nnc3snc(C)c3c2=O)cc1SCC(F)(F)F [Compound 205] | 100 |  |  |  | 100 |  |  | 100 |  |  |  | 
Cc1cc(F)c(-n2nnc3snc(C)c3c2=O)cc1[S+]([O-])CC(F)(F)F (stereo not shown) [Compound 206] | 100 | 100 |  |  | 100 |  |  | 100 |  |  |  | 
Cc1cc(F)c(-n2cnc3snc(C)c3c2=O)cc1[S+]([O-])CC(F)(F)F (stereo not shown) [Compound 204] | 83 | 100 |  |  | 90 | 100 |  |  |  |  |  | 
Cc1nn(C)c2ncn(-c3ccc(Cl)c(SCC(F)(F)F)c3)c(=O)c12 [Compound 36] | 100 |  | 2.82 | 2.79 |  |  |  | 83 |  |  |  | 
Cc1c2c(=O)n(-c3ccc(C(F)(F)F)c([S+]([O-])CC(F)(F)F)c3)cnc2nn1C (stereo not shown) [Compound 46] | 100 | 90 | 2.11 | 2.07 |  |  |  | 100 |  |  |  | 
Cc1cc(F)c(-n2c(C)nc3c(cnn3C)c2=O)cc1[S+]([O-])CC(F)(F)F (stereo not shown) [Compound 15, 5-{2-Fluoro-4-methyl-5-[(2,2,2-trifluoroethyl)sulphinyl]phenyl}-1,6-dimethyl-1,5-dihydro-4H-pyrazolo[3,4-d]pyrimidin-4-one] |  | 90 |  |  | 90 | 100 |  |  | 1.85 | 1.85 | 1.84 | 1.84
CCn1ncc2c(=O)n(-c3cc(SCC(F)(F)F)c(C)cc3F)c(C)nc21 [Compound 125] |  |  |  |  | 100 |  | 100 |  |  |  |  | 
Cc1ccc(-n2cnc3c(c(C)nn3C)c2=O)cc1[S+]([O-])CC(F)(F)F (racemic) [Compound 33] | 100 |  | 1.79 | 1.75 | 90 |  |  | 100 |  |  |  | 
Cc1cc(F)c(-n2cnc3c(cnn3C)c2=O)cc1[S+]([O-])CC(F)(F)F (stereo not shown) [Compound 2, 5-{2-Fluoro-4-methyl-5-[(2,2,2-trifluoroethyl)sulphinyl]phenyl}-1-methyl-1,5-dihydro-4H-pyrazolo[3,4-d]pyrimidin-4-one] | 100 |  |  |  | 100 | 100 |  |  | 1.73 | 1.73 | 1.69 | 1.69
Cc1nc2c(=O)n(-c3cc([S+]([O-])CC(F)(F)F)c(C)cc3F)cnc2s1 (stereo not shown) [Compound 73] |  | 90 | 1.80 | 1.77 | 100 | 100 |  |  |  |  |  | 
